{
  "source": "patent US11033572B2",
  "about": "“Molecular adjuvants for enhanced cytosolic delivery of active agents” (Universiteit Gent, priority 2017, dated 2021)",
  "key": {"H1299_eGFP cells": {"system": "H1299_eGFP cells", "assay": "Transfection with Lipofectamine RNAiMAX or DOTAP-DOPE liposomes, with or without desloratadine, eGFP silencing", "format": "cell-based", "conditions": "40 μM, 2 h", "protocol": "Lipofectamine® RNAiMAX (Invitrogen, Belgium) was applied as prescribed by the manufacturer. In short, equal volumes of RNAiMAX and siRNA dilutions were mixed and allowed to complex during 5 minutes at room temperature. Transfection occurred in Opti-MEM®. According to the guidelines, 5 pmol siRNA/well was applied to obtain optimal transfection efficiencies. To allow comparison with the siNG transfection methods, the RNAiMAX lipoplexes were additionally further diluted to 0.6 pmol siRNA/well. […] Of note, a single biological replicate was performed with three technical replicates and data are represented as the mean±SEM.\nDOTAP (2,3-dioleoyloxy-propyl)-trimethylammonium)—DOPE (1,2-dioleoyl-sn-glycero-3-phosphoethanolamine) liposomes (LPS) were prepared via the lipid film hydration method. […]\nFor silencing experiments, H1299_eGFP cells were seeded in 24 well plates at a density of 35000 cells/well and were allowed to settle overnight. […] SiNG-mediated eGFP silencing was determined by flow cytometry. […] For each sample the forward and side scatter as well as the green fluorescent signal were measured for at least 5000 cells. The samples were excited with the 488 nm laser line and the signal was detected with the 530/30 filter using the FACSCalibur™ flow cytometer (BD Biosciences, Belgium) and BD CellQuest™ acquisition software."}, "H1299_WT cells": {"system": "H1299_WT cells", "assay": "Release of FITC-dextrans into the cytosol (confocal microscopy)", "format": "cell-based", "conditions": "40 μM, 20 h, 10 kDa FITC-dextran; listed as DL", "protocol": "To visualize the FITC-dextran release, a 1 mg/mL dispersion of 10 kDa FITC-dextrans (Sigma-Aldrich, Belgium) in complete cell medium was added during 1 hour at 37° C. in a humidified atmosphere containing 5% CO2. To assess oligonucleotide escape, the NGs were first loaded with 100 nM Alexa Fluor 647-labeled oligonucleotides (21-mer) (Eurogentec, Belgium) according to the procedure described for siRNA complexation. Of note, these oligonucleotides transfer to the nucleus upon release into the cytosol (Rehman et al., ACS Nano, 2013). Following four hours of NG transfection or 1 h incubation with FITC-dextrans, the cells were washed with PBS and received 1.5 mL fresh cell medium with or without 10, 20 or 40 μM DL. After an additional incubation period of 20 hours, the cell medium was removed and nuclei were labeled with Hoechst (Molecular Probes™, Belgium) in cell medium during 15 minutes at 37° C. […]\nThe samples were imaged using a laser scanning confocal microscope (LSCM, C1si, Nikon) and a 60× oil immersion Plan Apo objective (Nikon, Belgium). […] During data analysis with the ImageJ image processing software (NIH) both the total cell number and amount of cells with a diffuse FITC-dextran labeling or oligonucleotide-positive nuclei were counted. […]"}},
  "data": [
    {"smiles": "Clc1ccc2c(c1)CCc1cccnc1C2=C1CCNCC1", "note": "[(3) Desloratadine, Desloratadine]", "values": [
      {"measurement": "cytosolic siRNA delivery via cationic liposomes", "setting": "H1299_eGFP cells", "result": "not able to enhance cytosolic siRNA delivery"},
      {"measurement": "Cells with diffuse FITC-dextran labeling", "setting": "H1299_WT cells", "result": 26, "unit": "%"}
    ]}
  ]
}
